This assay has as its target AdhD (AdhD-SP) (Pyrococcus furiosus, UniProt Q8TZM9). In words: NADH disappearance at […] nm, Michaelis-Menten fit. It counts as biochemical. The following applies: free enzyme; NADH (A340 ~1.8); 100 mM sodium phosphate pH 6.2; 50 °C.

SMILES strings stand for the structures.

Regarding `CC(=O)C(C)O` (stereo not shown) [acetoin], the KM entry is “The dependence of the reaction rate on acetoin followed Michaelis-Menten kinetics”.

Source of the values: publication PMC8859858 (Nanoscale, 2019).
